{"source": "patent US11427604B2", "about": "(Mindset Pharma Inc., priority 2020, dated 2022)", "key": {"[1]": {"settings": "cited from earlier work"}, "human 5-HT2A receptor": {"biological_target": "human 5-HT2A receptor (Homo sapiens (Human), UniProt P28223)", "assay": "Radioligand binding assay ([3H]-ketanserin) on human 5-HT2A receptor", "description": "i. Prepare the assay buffer following the table below;\nii. Preparation of 8 doses of reference and test compounds starting from 10 mM stock solution as requested by 5-fold serial dilutions with 100%;\niii. […] a. Add 50 μl/well of 0.5% (v/v) PEI to UniFilter-96 GF/B plates. Seal the plates and incubate at 4° C. for 3 hrs; b. After incubation, wash the plates 3 times with ice-cold wash buffer (50 mM Tris, pH7.4);\niv. Preparation of assay plates: a. Dilute cell membrane with assay buffer and add 330 μl/well to 96 round deep well plates to reach a concentration of 20 μg/well; b. Prepare 8 concentrations of reference or exemplary compounds of the application and add 110 μl/well to 96 round deep well plates; c. Dilute [3H]-ketanserin with assay buffer to 5 nM (5× final concentration) and add 110 μl/well to 96 round deep well plates.\nv. Centrifuge the plate at 1000 rpm for 30 secs and then agitate at 600 rpm, R.T. for 5 min.\nvi. Seal the plates and incubate the plate at 27° C. for 90 min.\nvii. Stop the incubation by vacuum filtration onto GF/B filter plates followed by 4 times washing with ice-cold wash buffer (50 mM Tris, pH7.4).\nix. Seal the filter plates and add 40 μl/well of scintillation cocktail.\nx. Read the plate by using a Microbeta2 microplate counter.\nFor reference and exemplary test compounds of the application, the results are expressed as % Inhibition, using the normalization equation: N=100−100×(U−C2)/(C1−C2), where U is the unknown value, C1 is the average of high controls, and C2 is the average of low controls. The IC50 is determined by fitting percentage of inhibition as a function of compound concentrations with Hill equation using XLfit."}, "[2]": {"biological_target": "human 5-HT2A (h5-HT2A) receptor (Homo sapiens (Human), UniProt P28223)", "assay": "FLIPR assay, human 5-HT2A receptor under agonist mode", "type": "cell-based", "description": "I. Assessment of the Activated Effect of Compounds of Formula I Targeting on Human 5-HT2A (h5-HT2A) Receptor Under Agonist Mode\n1. Culture the cells in cell culture medium (DMEM containing 10% FBS, 1× penicillin-streptomycin 300 μg/ml G418 and 100 μg/ml hygromycin B) at 37° C., 5% (v/v) CO2.\n2. One day before the assays, detach the cell using TrypLE™ Express and count cells using cell counter.\n3. Seed 20000 cells/well in 30 μl/well culture medium to a 384-well cell plate and incubate the cells overnight at 37° C., 5% (v/v) C02.\n4. On the assay day, prepare 2× dye solution following the manual of the FLIPR® Calcium 6 Assay Kit: i. Dilute the dye with assay buffer (20 mM HEPES in 1×HBSS, PH7.4); ii. Add probenecid to the final concentration of 5 mM; iii. Vortex vigorously for 1-2 minutes.\n5. Remove medium from cell plate by flicking the cell plate on towel papers.\n6. Add 10 μl of assay buffer and 10 μl of 2× dye solution to each well of the cell plate.\n7. Put the cell plate on plate shaker, agitate the plate at 600 rpm for 2 minutes. Incubate the plate at 37° C. for 2 hours followed by additional 15-minute incubation at 25° C.\n8. Prepare 3× compound in assay buffer: a. Dilute reference compounds to required concentration with DMSO. Add the compounds to a 384-well compound plate; b. Perform serial dilutions; c. Add 10 mM test compounds to the compound plate, perform 3-fold serial dilutions. d. […] Add 20 μl/well assay buffer to the compound plate; f. Mix the plate on plate shaker for 2 mins;\ni. The normalized fluorescence reading (RFU) is calculated as shown follow, while Fmax and Fmin stand for maximum and minimum of calcium signal during defined time window: RFU=Fmax−Fmin\nii. Calculate the percentage activation by using following equation: […]\niii. Calculate EC50 by fitting % activation against log of compound concentrations with Hill equation using XLfit."}, "[3]": {"assay": "Human liver microsomes stability with NADPH", "description": "(§1) The objective of this study was to estimate in vitro metabolic stability of 1-45 in pooled human and male mouse liver microsomes. The concentrations of exemplary compounds in reaction systems were evaluated by LC-MS/MS for estimating the stability in pooled human and male mouse liver microsomes. The in vitro intrinsic clearances of test compounds were determined as well.\n(§2) A master solution in the “Incubation Plate” containing phosphate buffer, ultra-pure H2O, MgCl2 solution and liver microsomes was made according to Table --. The mixture was pre-warmed at 37° C. water bath for 5 minutes.\n(§3) 40 μL of 10 mM NADPH solution was added to each well. The final concentration of NADPH was 1 mM. The negative control samples were prepared by replacing NADPH with 40 μL of ultra-pure H2O. Samples were prepared in duplicate. Negative controls were prepared in singlet.\n(§4) The reaction was started with the addition of 4 μL of 200 μM test compounds or control compounds to each master solution to get the final concentration of 2 μM. This study was performed in duplicate.\n(§5) Aliquots of 50 μL were taken from the reaction solution at 0, 15, 30, 45 and 60 minutes. The reaction solutions were stopped by the addition of 4 volumes of cold methanol with IS (100 nM alprazolam, 200 nM imipramine, 200 nM labetalol and 2 μM ketoprofen). Samples were centrifuged at 3,220 g for 40 minutes. Aliquot of 90 μL of the supernatant was mixed with 90 μL of ultra-pure H2O and then was used for LC-MS/MS analysis.\n(§6) LC/MS analysis was performed for all samples from this study using a Shimadzu liquid chromatograph separation system equipped with degasser DGU-20A5R; solvent delivery unit LC-30AD; system controller SIL-30AC; column oven CTO-30A; CTC Analytics HTC PAL System. Mass spectrometric analysis was performed using an Triple Quad™ 5500 instrument.\n(§7) All calculations were carried out using Microsoft Excel. Peak area ratios of test compound to internal standard (listed in the below table) were determined from extracted ion chromatograms.\n(§8) All calculations were carried out using Microsoft Excel. Peak areas were determined from extracted ion chromatograms. The slope value, k, was determined by linear regression of the natural logarithm of the remaining percentage of the parent drug vs. incubation time curve.\n(§9) Conversion of the in vitro t1/2 (min) into the in vitro intrinsic clearance (in vitro CLint, in μL/min/mg proteins) was done using the following equation (mean of duplicate determinations):\n(§10) [formula] […] Results & Discussion"}, "[4]": {"assay": "Mouse liver microsomes stability with NADPH", "description": "as §1, §2, §3, §4, §5, §6, §7, §8, §9, §10"}, "[5]": {"assay": "Rat liver microsomes stability with NADPH"}}, "note": "Like-named read-outs stand apart in the source and are kept apart here."}
{"smiles": "CN(C)CCc1c[nH]c2cccc(OP(=O)(O)O)c12", "note": "[psilocybin, 4-phosphoryloxy-N,N-dimethyltrypatmine]", "values": [{"measurement": "abstinence rate", "setting": "[1]; 12 months follow-up", "result": 67, "unit": "%"}, {"measurement": "abstinence rate", "setting": "[1]; six months follow-up", "result": 80, "unit": "%"}]}
{"smiles": "[2H]C([2H])([2H])N(C([2H])([2H])[2H])C([2H])([2H])C([2H])([2H])c1c[nH]c2cccc(OC)c12", "note": "[Compound I-44, 2-(4-methoxy-1H-indol-3-yl)-N,N-bis(methyl-d3)ethan-1-amine-1,1,2,2-d4]", "values": [{"measurement": "IC50", "setting": "human 5-HT2A receptor", "result": "< 500", "unit": "nM"}, {"measurement": "EC50", "setting": "[2]", "result": "< 1000", "unit": "nM"}]}
{"smiles": "[2H]C([2H])([2H])N(C([2H])([2H])[2H])C([2H])([2H])C([2H])([2H])c1c[nH]c2cccc(F)c12", "note": "[Compound I-43, 2-(4-fluoro-1H-indol-3-yl)-N,N-bis(methyl-d3)ethan-1-amine-1,1,2,2-d4]", "values": [{"measurement": "IC50", "setting": "human 5-HT2A receptor", "result": "< 500", "unit": "nM"}, {"measurement": "EC50", "setting": "[2]", "result": "< 1000", "unit": "nM"}]}
{"smiles": "[2H]C([2H])([2H])N(C([2H])([2H])[2H])C([2H])([2H])C([2H])([2H])c1c[nH]c2cccc(OP(=O)(O)O)c12", "note": "[Compound I-3, 3-(2-(bis(methyl-d3)amino)ethyl-1,1,2,2-d4)-1H-indol-4-yl dihydrogen phosphate]", "values": [{"measurement": "IC50", "setting": "human 5-HT2A receptor", "result": "500 to 5000", "unit": "nM"}, {"measurement": "EC50", "setting": "[2]", "result": "1000 to 10000", "unit": "nM"}]}
{"smiles": "CN(C)CCc1c[nH]c2cccc(O)c12", "note": "[Psilocin, 4-hydroxy-N,N-dimethyltryptamine, reference compound]", "values": [{"measurement": "Remaining Percentage (%) after 60 min", "setting": "[3]; Human, with NADPH, 2 μM", "result": 70.16, "unit": "%"}, {"measurement": "half-life at 2 μM", "setting": "[3]; human, microsomes", "result": 1.96, "unit": "h"}, {"measurement": "microsomal CLint at 2 μM", "setting": "[3]; human, microsomes", "result": 11.8, "unit": "µL/min/mg"}, {"measurement": "Remaining Percentage (%) after 60 min", "setting": "[4]; Mouse, with NADPH, 2 μM", "result": 96.89, "unit": "%"}, {"measurement": "half-life at 2 μM", "setting": "[4]; male, mouse, microsomes", "result": 2.36, "unit": "h"}, {"measurement": "microsomal CLint at 2 μM", "setting": "[4]; male, mouse, microsomes", "result": 9.78, "unit": "µL/min/mg"}, {"measurement": "Remaining Percentage (%) after 60 min", "setting": "[5]; Rat, with NADPH, 2 μM", "result": 62.68, "unit": "%"}, {"measurement": "half-life at 2 μM", "setting": "[5]; rat, microsomes", "result": 1.48, "unit": "h"}, {"measurement": "microsomal CLint at 2 μM", "setting": "[5]; rat, microsomes", "result": 15.6, "unit": "µL/min/mg"}]}
